Laboratory results: patent US20200131144A1, “AMINE OR (THIO)AMIDE CONTAINING LXR MODULATORS” (Phenex-FXR GmbH, priority 2017, published 2020)

Experiments:
[1] = target: T1, GST-LXRβ ligand-binding domain (Homo sapiens, UniProt P55055, INS174Q); assay: TR-FRETβ activity assay (NCoA3 coactivator peptide recruitment); type: biochemical; conditions: 1 μM 24(S)-25-epoxycholesterol as prestimulating agonist; inverse agonist unless *
T1 construct: amino acids 156-461; NP009052; made in house; host or cells: E. coli
T1 sequence (P55055 with tags, fused parts or gaps INS174Q limits assumed): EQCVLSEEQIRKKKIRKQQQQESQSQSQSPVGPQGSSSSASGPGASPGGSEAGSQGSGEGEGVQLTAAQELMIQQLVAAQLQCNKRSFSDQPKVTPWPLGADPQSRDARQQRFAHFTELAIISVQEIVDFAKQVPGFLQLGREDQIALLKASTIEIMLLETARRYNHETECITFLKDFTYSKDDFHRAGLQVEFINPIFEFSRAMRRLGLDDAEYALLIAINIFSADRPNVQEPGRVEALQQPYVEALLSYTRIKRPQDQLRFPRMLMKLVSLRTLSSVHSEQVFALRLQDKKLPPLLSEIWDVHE
Method in brief: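 E. coli-expressed GST-LXRβ LBD (aa 156-461, 76 nM) with biotinylated NCoA3 peptide (400 nM), anti-GST-Tb cryptate donor and streptavidin-XL665 acceptor in 240 mM KCl, BSA, 0.002% Triton X-100. Equilibrated 1 h at 4° C; TR-FRET read at 615/665 nm, triplicates.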

LXRα full length (FL) = target: T2, LXRα full length (FL) (Homo sapiens, UniProt Q13133); assay: LXR Gal4 reporter transient transfection assay, mammalian two-hybrid, FL-M2H Gal4α; type: cell-based; conditions: HEK293 cells; inverse agonist unless *
T2 construct: the full length (FL) proteins of LXRα (amino acids 1-447); NP005684; expressed in transfected cells; host or cells: HEK293
T2 sequence (Q13133 1-447): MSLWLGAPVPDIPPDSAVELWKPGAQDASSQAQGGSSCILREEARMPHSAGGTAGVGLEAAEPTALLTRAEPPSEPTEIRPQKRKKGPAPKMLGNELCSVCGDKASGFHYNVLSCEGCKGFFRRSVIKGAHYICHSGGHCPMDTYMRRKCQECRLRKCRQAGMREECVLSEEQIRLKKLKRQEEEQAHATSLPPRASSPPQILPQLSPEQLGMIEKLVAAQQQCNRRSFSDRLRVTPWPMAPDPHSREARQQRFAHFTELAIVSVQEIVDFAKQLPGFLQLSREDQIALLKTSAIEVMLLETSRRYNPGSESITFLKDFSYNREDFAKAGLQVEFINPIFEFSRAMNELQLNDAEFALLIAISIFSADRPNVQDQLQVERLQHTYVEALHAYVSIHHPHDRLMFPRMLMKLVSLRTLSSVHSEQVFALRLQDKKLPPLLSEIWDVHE
Method in brief: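 HEK293 cells transiently cotransfected with NFkB-AD fusions of full-length or LBD LXRα/β, GAL4-DBD fusions of SRC1 coactivator or NCoR corepressor domains, GAL4-driven firefly luciferase and Renilla control. Compound added 4 h post-transfection (≤0.2% DMSO), 16 h incubation; firefly and Renilla luminescence read sequentially.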

## Cc1ccc2ccccc2c1C(=O)N(Cc1ccc(-c2cccc(S(=O)(=O)CC(=O)O)c2)cc1)Cc1ccc(C(F)(F)F)o1 [Example 9]
[1]
  EC50: 1 to 10 µM

## Cc1ccc2ccccc2c1C(=O)N(Cc1ccc(-c2cccc([C@@H](C)C(=O)O)c2)cc1)Cc1ccc(C(F)(F)F)o1 [10/5]
LXRα full length (FL)
  EC50: < 0.1 µM
[1]
  EC50: < 0.1 µM

## Cc1ccc2ccccc2c1C(=O)N(Cc1ccc(-c2cc(F)c(CO)c(S(=O)(=O)CC(=O)O)c2)cc1)Cc1ccc(C(F)(F)F)o1 [22/8]
[1]
  EC50: 1 to 10 µM

## Cc1ccc2ccccc2c1C(=O)N(Cc1ccc(C(F)(F)F)o1)Cc1ccc(-c2cccc(C(C)(C)C(=O)O)c2)cc1C#N [27/7]
LXRα full length (FL)
  EC50: < 0.1 µM
[1]
  EC50: < 0.1 µM

## CCc1nc2ccccc2c(C(=O)N(Cc2ccc(-c3cccc(C(C)(C)C(=O)O)c3)cc2)Cc2ccc(C(F)(F)F)o2)c1C [27/43]
LXRα full length (FL)
  EC50: < 0.1 µM
[1]
  EC50: 1 to 10 µM

## COc1cc(-c2cccc(C(C)(C)C(=O)O)c2)ccc1CN(Cc1ccc(C(F)(F)F)o1)C(=O)c1c(C)ccc2ccccc12 [27/66]
LXRα full length (FL)
  EC50: < 0.1 µM
[1]
  EC50: 0.1 to 1 µM

## COc1c(C)nc2ccccc2c1C(=O)N(Cc1ccc(-c2cccc(C(C)(C)C(=O)O)c2)cc1)Cc1ccc(C(F)(F)F)o1 [27/81]
LXRα full length (FL)
  EC50: < 0.1 µM
[1]
  EC50: 0.1 to 1 µM

## COc1ccc2c(c1CN(Cc1ccc(-c3cccc(C(C)(C)C(=O)O)c3)cc1)Cc1ccc(C(F)(F)F)o1)CCCC2 [27/17]
LXRα full length (FL)
  EC50: < 0.1 µM
[1]
  EC50: 0.1 to 1 µM

## Cc1ccc2ccccc2c1C(=O)N(Cc1ccc(-c2cccc(C(C)(C)C(=O)O)c2)cc1)Cc1ccc(C(F)F)o1 [27/36]
LXRα full length (FL)
  EC50: < 0.1 µM
[1]
  EC50: 0.1 to 1 µM

## Cc1ccc2ccccc2c1CN(Cc1ccc(-c2cccc(C(C)(C)C(=O)O)c2)cc1)Cc1ccc(C(F)(F)F)o1 [Example 24, 2-Methyl-2-(4′-((((2-methylnaphthalen-1-yl)methyl)((5-(trifluoromethyl)furan-2-yl)methyl)amino)methyl)-[1,1′-biphenyl]-3-yl)propanoic acid]
LXRα full length (FL)
  EC50: < 0.1 µM
[1]
  EC50: < 0.1 µM

## Cc1nc2cccnc2c(C(=O)N(Cc2ccc(-c3cccc(C(C)(C)C(=O)O)c3)cc2)Cc2ccc(C(F)(F)F)o2)c1C [27/93]
LXRα full length (FL)
  EC50: < 0.1 µM
[1]
  EC50: 0.1 to 1 µM

## Cc1cc(C)c(C(=O)N(Cc2ccc(-c3cccc(C(C)(C)C(=O)O)c3)cc2)Cc2ccc(C(F)(F)F)o2)c(C)c1 [10/1]
LXRα full length (FL)
  EC50: < 0.1 µM
[1]
  EC50: 0.1 to 1 µM

## Cc1ccc2ccccc2c1C(=O)N(Cc1ccc(C(F)(F)F)o1)Cc1ncc(-c2cccc(C(C)(C)C(=O)O)c2)cc1Cl [27/78]
LXRα full length (FL)
  EC50: < 0.1 µM
[1]
  EC50: < 0.1 µM

## Cc1ccc2ccccc2c1C(=O)N(Cc1ccc(-c2cccc(C(C)(C)C(=O)O)c2)cc1)Cc1ccc(C#N)o1 [27/38]
LXRα full length (FL)
  EC50: 0.1 to 1 µM
[1]
  EC50: < 0.1 µM

## Cc1ccc2ccccc2c1C(=O)N(Cc1ccc(-c2cc(F)cc(C3(C(=O)O)CC3)c2)cc1)Cc1ccc(C(F)(F)F)o1 [27/76]
LXRα full length (FL)
  EC50: < 0.1 µM
[1]
  EC50: 0.1 to 1 µM

## Cc1nc2ccccc2c(C(=O)N(Cc2ccc(-c3cccc(C(C)(C)C(=O)O)c3)cc2)Cc2ccc(C(F)(F)F)o2)c1C [27/79]
LXRα full length (FL)
  EC50: < 0.1 µM
[1]
  EC50: 0.1 to 1 µM

## COc1ccc2c(c1C(=O)N(Cc1ccc(-c3cccc(C(C)(C)C(=O)O)c3)cc1)Cc1ccc(C(F)(F)F)o1)CCCC2 [27/45]
LXRα full length (FL)
  EC50: < 0.1 µM
[1]
  EC50: < 0.1 µM

## CCOC(=O)c1ccc(CN(Cc2ccc(-c3cccc(C(C)(C)C(=O)O)c3)cc2)C(=O)c2c(C)ccc3ccccc23)o1 [27/28]
LXRα full length (FL)
  EC50: < 0.1 µM
[1]
  EC50: < 0.1 µM

## CC(C)(C(=O)O)c1cccc(-c2ccc(CN(Cc3ccc(C(F)(F)F)o3)C(=O)c3c4ccccc4cc4ccccc34)cc2)c1 [27/47]
LXRα full length (FL)
  EC50: < 0.1 µM
[1]
  EC50: < 0.1 µM

## Cc1ccc2ccccc2c1C(=O)N(Cc1ccc(-c2cccc(C(C)(O)C(=O)O)c2)cc1)Cc1ccc(C(F)(F)F)o1 (stereo not shown) [27/10]
LXRα full length (FL)
  EC50: < 0.1 µM
[1]
  EC50: 0.1 to 1 µM

## Cc1ccc2ccccc2c1C(=O)N(Cc1ccc(-c2cccc(C(C)(C)C(=O)O)c2)cc1)Cc1ccc(C(F)(F)F)o1 [27/26]
LXRα full length (FL)
  EC50: < 0.1 µM
[1]
  EC50: < 0.1 µM
